This is an account of results in patent US10179797B2, “Phosphinic peptide derivatives for use as MMP-12 inhibitors” (DSM IP ASSETS B.V., priority 2015, dated 2019).

Assay [1] deals with T1, MMP-12 (Homo sapiens, UniProt P39900). The experiment in a line: MMP-12 Fluorometric Drug Discovery Kit inhibition assay. It counts as biochemical. Details: purchased Enzo Life Sciences Inc., Farmingdale, N.Y., USA. Particulars: read-out: % Inhibition after 20 min. An excerpt:
The MMP-12 inhibitor activity was quantified by fluorometric analysis using the MMP-12 Fluorometric Drug Discovery Kit (Enzo Life Sciences Inc., Farmingdale, N.Y., USA) according to the manufacturers' instructions.
Target sequence in this assay (P39900 106-263 limits assumed): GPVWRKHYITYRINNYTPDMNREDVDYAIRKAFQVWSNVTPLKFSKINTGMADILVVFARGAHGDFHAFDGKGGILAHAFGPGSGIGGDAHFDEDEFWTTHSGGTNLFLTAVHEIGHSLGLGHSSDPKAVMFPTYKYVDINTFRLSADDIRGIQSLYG

Another assay deals with Human skin. The experiment in a line: Total dermal elastin after UV-irradiation of cultured human skin samples. Particulars: concentration 100 [μm]; for Increase vs. untreated-UV: day 6, (Dermal elastin sample − Dermal Elastin UV)/Dermal Elastin UV * 100%; for Dermal elastin: topical twice a day, daily 45 J/cm^2 UVA, day 6, papillary dermis, non-UV treated sample = 100%. On the procedure:
Human skin from abdominal plastic surgery classified as “Intermediate” (ITA° angle=53°) has been used. The skin samples were cut in pieces of approx. 8×3 mm (ø×thickness) and cultured up to day 6 in an air-liquid interface in a perforated ring of stainless steel in contact with a culture medium (modified Williams'E medium), the culture medium was renewed every three days. Eight skin specimens were used for each treatment. Each test sample (4 μl) was topically applied twice a day, immediately after UV irradiation and renewed 4 hours later top of each piece after gentle cleaning of the surface with a cotton pad followed by covering with a 6 ømm delivery membrane, which procedure was repeated daily. The samples were irradiated daily with 800% of the Biological Effective Dose of daylight (BED; Del Bino et al, Pigment Cell research, 19, 2006) equal to a dose of 45 J/cm^2 UVA using an adopted BIO-SUN system (Vilber Lourmat). At day 6 twelve skin sections were immunostained with mouse monoclonal anti-Elastin antibody (Sigma cat#E4013). The papillary dermis is selected for the analysis. The evaluation has been performed by estimating both color intensity and distribution with IMAGE J (NIH) analysis software Two slides of each skin sample have been processed by image acquisition and related analysis (i.e. 12 images for each treatment). The score of the dermal Elastin of the non-UV treated sample was set to 100%.

Assay [2] concerns the target T1, MMP-12. The experiment in a line: Inhibition of MMP-12 degradation of elastin fibers produced by human dermal fibroblasts. The assay is classed as cell-based. Particulars: MMP-12 200 U/ml, 2 hrs at 37° C. On the procedure: Human dermal fibroblasts were pre-cultured in DMEM, 10% FCS, 1% P/S for 48 hrs before starving them in DMEM, 0.2% FCS, 1% P/S for 24 hrs. To induce elastin fiber production TGFb1 (10 ng/ml) was added and incubated for 5 days. After incubation with TGFb1, medium was carefully discarded and cells were washed with assay buffer (HBSS, […] HEPES). In the meantime MMP-12 (200 U/ml) and compounds were mixed in assay buffer and allowed to interact for 30 min. This mixture was then added to the cells and incubated for 2 hrs at 37° C.
Cells were then fixed with ice-cold methanol for 5 min and rehydrated by PBS. Unspecific sites were blocked with 1% BSA in PBS for 1 h at room temperature. Elastin fibers were detected using a primary antibody against elastin and the first antibody was detected with AlexaFluor 488 conjugated secondary antibody. Finally, nuclei were counterstained with DAPI. Stained cells were analyzed with the Thermo Scientific ArrayScan XTI Live High Content Platform. 49 pictures per well were acquired with a 20× objective and as readout we used the area covered by the elastin fibers. % of inhibition of elastin fiber degradation was calculated the following way: % protection of elastin fiber network degradation=100−[(max area−min area)/(max area inhibitor area)*100] in which max area=area covered by elastin fibers of untreated control cells min area=area covered by elastin fibers of MMP12 treated cells inhibitor area=area covered by elastin fibers of MMP12 and inhibitor treated cells.
Target sequence in this assay (P39900 106-470, species assumed): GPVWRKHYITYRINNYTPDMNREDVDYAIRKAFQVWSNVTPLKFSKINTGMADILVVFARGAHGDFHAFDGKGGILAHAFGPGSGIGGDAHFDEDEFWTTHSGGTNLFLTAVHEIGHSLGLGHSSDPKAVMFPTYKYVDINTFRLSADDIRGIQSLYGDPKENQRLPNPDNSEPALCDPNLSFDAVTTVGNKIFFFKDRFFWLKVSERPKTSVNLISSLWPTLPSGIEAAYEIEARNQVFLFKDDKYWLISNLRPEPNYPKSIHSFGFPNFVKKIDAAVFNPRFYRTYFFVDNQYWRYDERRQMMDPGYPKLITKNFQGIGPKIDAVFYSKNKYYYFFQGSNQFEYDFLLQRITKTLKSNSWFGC

As for `O=C(O)CCCNC(=O)C(Cc1ccc(-c2ccccc2)cc1)CP(=O)(O)CCc1ccccc1` (stereo not drawn) [(I)-L], at MMP-12 [1], the inhibition at 0.5 µM was found to be 75%, the inhibition at 1 µM amounted to 82% and the inhibition at 10 µM turned out to be 90%.

Consider `CC[C@H](NC(=O)[C@H](Cc1ccc(-c2ccccc2)cc1)CP(=O)(O)CCc1ccccc1)C(=O)OC(C)(C)C` [(I)-P], for which the inhibition at 10 µM on MMP-12 [1] was 88%.

Take `CCCC[C@H](NC(=O)[C@H](Cc1ccc(-c2ccccc2)cc1)CP(=O)(O)CCc1ccccc1)C(=O)OC` [(I)-H]: at MMP-12 [1], the inhibition at 0.5 µM turned out to be 83%, the inhibition at 1 µM turned out to be 89% and the inhibition at 10 µM turned out to be 91%.

Turning to `CCC(C)[C@H](NC(=O)[C@H](Cc1ccc(-c2ccccc2)cc1)CP(=O)(O)CCc1ccccc1)C(=O)O` (stereo partly drawn) [(I)-B], at MMP-12 [1], the inhibition at 0.5 µM is 94%, the inhibition at 1 µM worked out at 94% and the inhibition at 10 µM turned out to be 92%.

For `C[C@H](NC(=O)[C@H](Cc1ccc(-c2ccccc2)cc1)CP(=O)(O)CCc1ccccc1)C(=O)O` [(I)-J], on MMP-12 [1], the inhibition at 0.5 µM stood at 93%, the inhibition at 1 µM came out at 94% and the inhibition at 10 µM was determined as 90%.

`CC[C@@H](C)[C@H](NC(=O)[C@@H](Cc1ccc(-c2ccccc2)cc1)CP(=O)(O)CCc1ccccc1)C(=O)OC(C)(C)C` [(I)-T, ((R)-2-([1,1′-biphenyl]-4-ylmethyl)-3-(((2S,3R)-1-(tert-butoxy)-3-methyl-1-oxopentan-2-yl)amino)-3-oxopropyl)(phenethyl)phosphinic acid]: at MMP-12 [1], the inhibition at 10 µM was 75%.

For the compound `O=C(N[C@@H](Cc1ccc2ccccc2c1)C(=O)O)[C@@H](Cc1ccc(-c2ccccc2)cc1)CP(=O)(O)CCc1ccccc1` [(I)-G], at MMP-12 [1], the inhibition at 0.5 µM amounted to 78%, the inhibition at 1 µM was 85% and the inhibition at 10 µM worked out at 91%.

Consider `COC(=O)[C@@H](NC(=O)[C@H](Cc1ccc(-c2ccccc2)cc1)CP(=O)(O)CCc1ccccc1)C1CCCCC1` [(I)-S, ((S)-2-([1,1′-biphenyl]-4-ylmethyl)-3-(((S)-1-cyclohexyl-2-methoxy-2-oxoethyl)amino)-3-oxopropyl)(phenethyl)phosphinic acid], for which the inhibition at 10 µM on MMP-12 [1] is 82%.

`CC(C)(C)OC(=O)[C@H](Cc1cn(C(=O)OC(C)(C)C)c2ccccc12)NC(=O)C(Cc1ccc(-c2ccccc2)cc1)CP(=O)(O)CCc1ccccc1` (stereo partly drawn) [(I)-R]: the inhibition at 10 µM at MMP-12 [1] was found to be 82%.

Take `O=C(N[C@@H](Cc1ccc2ccccc2c1)C(=O)OCc1ccccc1)[C@H](Cc1ccc(-c2ccccc2)cc1)CP(=O)(O)CCc1ccccc1` [(I)-Q]: the inhibition at 10 µM at MMP-12 [1] turned out to be 83%.

As for `O=C(N[C@@H](Cc1c[nH]c2ccccc12)C(=O)O)[C@@H](Cc1ccc(-c2ccccc2)cc1)CP(=O)(O)CCc1ccccc1` [(I)-K], at MMP-12 [1], the inhibition at 0.5 µM stood at 69%, the inhibition at 1 µM stood at 79% and the inhibition at 10 µM was found to be 90%.

As for `O=C(N[C@@H](Cc1csc2ccccc12)C(=O)O)[C@@H](Cc1ccc(-c2ccccc2)cc1)CP(=O)(O)CCc1ccccc1` [(I)-M], at MMP-12 [1], the inhibition at 0.5 µM is 52%, the inhibition at 1 µM was found to be 64% and the inhibition at 10 µM came out at 89%.

Take `COC(=O)[C@H](CCNC(=O)OC(C)(C)C)NC(=O)[C@@H](Cc1ccc(-c2ccccc2)cc1)CP(=O)(O)CCc1ccccc1` [(I)-D]: on MMP-12 [1], the inhibition at 0.5 µM came to 85%, the inhibition at 1 µM was determined as 90% and the inhibition at 10 µM is 91%.

For `O=C(NC(Cc1c[nH]c2ccccc12)C(=O)O)C(Cc1ccc(-c2ccccc2)cc1)CP(=O)(O)CCc1ccccc1.O=C(O)C(F)(F)F` (stereo not drawn) [(I)-c, (3-([1,1′-biphenyl]-4-yl)-2-((hydroxy(phenethyl)phosphoryl)methyl)propanoyl)tryptophan compound with 2,2,2-trifluoroacetic acid (1:1)], in the assay with Human skin, the “Increase vs. untreated-UV” value is “+52%” and the Dermal elastin amounted to 123%.

Consider `O=C(N[C@@H](Cc1c[nH]c2ccccc12)C(=O)O)[C@H](Cc1ccc(-c2ccccc2)cc1)CP(=O)(O)CCc1ccccc1` [(I)-C], for which, at MMP-12 [1], the inhibition at 0.5 µM stood at 93%, the inhibition at 1 µM came to 94% and the inhibition at 10 µM was found to be 92%.

As to `CC[C@@H](C)[C@H](NC(=O)[C@H](Cc1ccc(-c2ccccc2)cc1)CP(=O)(O)CCc1ccccc1)C(=O)OC(C)(C)C` [(I)-U, ((S)-2-([1,1′-biphenyl]-4-ylmethyl)-3-(((2S,3R)-1-(tert-butoxy)-3-methyl-1-oxopentan-2-yl)amino)-3-oxopropyl)(phenethyl)phosphinic acid], on MMP-12 [1], the inhibition at 10 µM was determined as 72%.

Consider `COC(=O)[C@H](Cc1csc2ccccc12)NC(=O)[C@H](Cc1ccc(-c2ccccc2)cc1)CP(=O)(O)CCc1ccccc1` [(I)-A], for which, on MMP-12 [1], the inhibition at 0.5 µM stood at 75%, the inhibition at 1 µM stood at 82% and the inhibition at 10 µM is 92%.

In the case of `NC(=O)C[C@H](NC(=O)[C@H](Cc1ccc(-c2ccccc2)cc1)CP(=O)(O)CCc1ccccc1)C(=O)O` [(I)-O], on MMP-12 [1], the inhibition at 10 µM stood at 88%.

For the compound `CC(C)C[C@H](NC(=O)[C@H](Cc1ccc(-c2ccccc2)cc1)CP(=O)(O)CCc1ccccc1)C(=O)OC(C)(C)C` [(I)-F], on MMP-12 [1], the inhibition at 0.5 µM was 73%, the inhibition at 1 µM turned out to be 82% and the inhibition at 10 µM came to 91%.

For `COC(=O)C(C)(C)NC(=O)C(Cc1ccc(-c2ccccc2)cc1)CP(=O)(O)CCc1ccccc1` (stereo not drawn) [(I)-V, (2-([1,1′-biphenyl]-4-ylmethyl)-3-((1-methoxy-2-methyl-1-oxopropan-2-yl)amino)-3-oxopropyl)(phenethyl)phosphinic acid], the inhibition at 10 µM on MMP-12 [1] was 61%.

As for `CCCCC(NC(=O)C(Cc1ccc(-c2ccccc2)cc1)CP(=O)(O)CCc1ccccc1)C(=O)O` (stereo not drawn) [(I)-k, 2-(3-([1,1′-biphenyl]-4-yl)-2-((hydroxy(phenethyl)phosphoryl)methyl)propanamido)hexanoic acid], in the assay on Human skin, the “Increase vs. untreated-UV” value is on record as “+54%” and the Dermal elastin was found to be 125%.

Take `CCC(C)C(NC(=O)C(Cc1ccc(-c2ccccc2)cc1)CP(=O)(O)CCc1ccccc1)C(=O)O` (stereo not drawn) [(I)-e, 2-(3-([1,1′-biphenyl]-4-yl)-2-((hydroxy(phenethyl)phosphoryl)methyl)propanamido)-3-methylpentanoic acid]: the “% protection of elastin fiber network degradation” value stood at 12.44% at MMP-12 [2] (0.05 μM), 68.17% at MMP-12 [2] (1 μM) and 83.73% on MMP-12 [2] (20 μM).

As for `NC(=O)C[C@H](NC(=O)[C@@H](Cc1ccc(-c2ccccc2)cc1)CP(=O)(O)CCc1ccccc1)C(=O)O` [(I)-I], at MMP-12 [1], the inhibition at 0.5 µM was found to be 84%, the inhibition at 1 µM stood at 89% and the inhibition at 10 µM came to 90%.

For `CCCC[C@H](NC(=O)[C@@H](Cc1ccc(-c2ccccc2)cc1)CP(=O)(O)CCc1ccccc1)C(=O)O` [(I)-N], the inhibition at 10 µM on MMP-12 [1] amounted to 89%.

Regarding `CC(NC(=O)C(Cc1ccc(-c2ccccc2)cc1)CP(=O)(O)CCc1ccccc1)C(=O)O` (stereo not drawn) [(I)-m, (3-([1,1′-biphenyl]-4-yl)-2-((hydroxy(phenethyl)phosphoryl)methyl)propanoyl)alanine], in the assay with Human skin, the “Increase vs. untreated-UV” value is given as “+30%” and the Dermal elastin is given as 106%.
